{"source": "paper PMC10813319", "about": "(Biomedicines, 2024)", "test_system": "PrP^C overexpression-induced cofilactin rods in rat hippocampal neurons"}
{"compound": "C[C@H](O)[C@@H](N)C(=O)N[C@@H](C(=O)N[C@H](CC(N)=O)C(=O)N[C@H](Cc1ccc(O)cc1)C(=O)N[C@@H](C(=O)O)[C@H](C)O)[C@H](C)O", "note": "[RAP-103]", "values": [{"measurement": "Rod formation induced by PrP^C overexpression, 4-day treatment", "value": "blocked"}, {"measurement": "Rod formation induced by PrP^C overexpression, treatment for last day only", "value": "reversed"}]}
